The source of these data is PubChem BioAssay (NCI).

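Cultured in 96-well plates, cells were exposed to test compound for 48 hours across five concentrations. Definition used: TGI = concentration required for complete inhibition of growth.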

The subject of one assay is MCF7 breast. Description: NCI tumour cell line growth inhibition, 48 h.
The compound `Cc1ccc(NC(=O)/C(Cc2cc(=O)oc3cc(O)ccc23)=N\NC(=O)C[N+](C)(C)C)cc1C` came in with a TGI greater than 100 µM.
Regarding `CC1OC(c2ccc3c(c2O)C(=O)C2=C(C3=O)C3(O)C(=O)CC(C)(O)CC3(O)C=C2)CC(O)C1O` (centres undefined), the TGI was 9 µM.
`CCN(CC)CCO/N=C1\CC[C@H]2[C@@H]3CCc4cc(OC)ccc4[C@H]3CC[C@]12C` gave a TGI of 9.49 µM.

Another assay deals with 786-0 renal. Description: NCI tumour cell line growth inhibition, 48 h.
In turn, `CC(=O)n1nc(-c2ccccc2)n(/N=C/c2ccc([N+](=O)[O-])o2)c1=O` had a TGI of 7.97 µM.
`Cc1ccc(NC(=O)/C(Cc2cc(=O)oc3cc(O)ccc23)=N\NC(=O)C[N+](C)(C)C)cc1C` came in with a TGI greater than 100 µM.
`CC1OC(c2ccc3c(c2O)C(=O)C2=C(C3=O)C3(O)C(=O)CC(C)(O)CC3(O)C=C2)CC(O)C1O` (centres undefined): the TGI was determined as 33.6 µM.
`CCN(CC)CCO/N=C1\CC[C@H]2[C@@H]3CCc4cc(OC)ccc4[C@H]3CC[C@]12C` had a TGI of 3.27 µM.

The next assay relates to K-562 leukemia. Nature of the assay: NCI tumour cell line growth inhibition, 48 h.
`CC(=O)n1nc(-c2ccccc2)n(/N=C/c2ccc([N+](=O)[O-])o2)c1=O` showed a TGI of 37 µM.
Regarding `Cc1ccc(NC(=O)/C(Cc2cc(=O)oc3cc(O)ccc23)=N\NC(=O)C[N+](C)(C)C)cc1C`, the TGI was greater than 100 µM.
The same measure, in the same setting: under `CC1OC(c2ccc3c(c2O)C(=O)C2=C(C3=O)C3(O)C(=O)CC(C)(O)CC3(O)C=C2)CC(O)C1O` (centres undefined) stands 14.3 µM; under `CCN(CC)CCO/N=C1\CC[C@H]2[C@@H]3CCc4cc(OC)ccc4[C@H]3CC[C@]12C`, 2.53 µM.

In another assay the test system is SF-539 CNS. Nature of the assay: NCI tumour cell line growth inhibition, 48 h.
In turn, `CC(=O)n1nc(-c2ccccc2)n(/N=C/c2ccc([N+](=O)[O-])o2)c1=O` returned a TGI of 18.4 µM.
`Cc1ccc(NC(=O)/C(Cc2cc(=O)oc3cc(O)ccc23)=N\NC(=O)C[N+](C)(C)C)cc1C` registered a TGI greater than 100 µM.
On the same count and under the same terms, under `CC1OC(c2ccc3c(c2O)C(=O)C2=C(C3=O)C3(O)C(=O)CC(C)(O)CC3(O)C=C2)CC(O)C1O` (centres undefined) stands 35.6 µM; under `CCN(CC)CCO/N=C1\CC[C@H]2[C@@H]3CCc4cc(OC)ccc4[C@H]3CC[C@]12C`, 3.92 µM.

The next assay relates to LOX IMVI melanoma. Nature of the assay: NCI tumour cell line growth inhibition, 48 h.
`CC(=O)n1nc(-c2ccccc2)n(/N=C/c2ccc([N+](=O)[O-])o2)c1=O` yielded a TGI of 23.2 µM.
With `Cc1ccc(NC(=O)/C(Cc2cc(=O)oc3cc(O)ccc23)=N\NC(=O)C[N+](C)(C)C)cc1C`, the TGI is greater than 100 µM.
For the compound `CC1OC(c2ccc3c(c2O)C(=O)C2=C(C3=O)C3(O)C(=O)CC(C)(O)CC3(O)C=C2)CC(O)C1O` (centres undefined), the TGI came to 30.9 µM.
The same measure, in the same setting: under `CCN(CC)CCO/N=C1\CC[C@H]2[C@@H]3CCc4cc(OC)ccc4[C@H]3CC[C@]12C` stands 2.04 µM.

The subject of a further assay is UACC-62 melanoma. Description: NCI tumour cell line growth inhibition, 48 h.
Regarding `CC(=O)n1nc(-c2ccccc2)n(/N=C/c2ccc([N+](=O)[O-])o2)c1=O`, the TGI came to 23.8 µM.
Consider `Cc1ccc(NC(=O)/C(Cc2cc(=O)oc3cc(O)ccc23)=N\NC(=O)C[N+](C)(C)C)cc1C`, for which the TGI is greater than 100 µM.
Turning to `CC1OC(c2ccc3c(c2O)C(=O)C2=C(C3=O)C3(O)C(=O)CC(C)(O)CC3(O)C=C2)CC(O)C1O` (centres undefined), the TGI amounted to 30.4 µM.
Consider `CCN(CC)CCO/N=C1\CC[C@H]2[C@@H]3CCc4cc(OC)ccc4[C@H]3CC[C@]12C`, for which the TGI was 2.02 µM.

In a further assay the test system is U251 CNS. Description: NCI tumour cell line growth inhibition, 48 h.
The compound `CC(=O)n1nc(-c2ccccc2)n(/N=C/c2ccc([N+](=O)[O-])o2)c1=O` gave a TGI of 33.4 µM.
Still for that read-out and setting: under `Cc1ccc(NC(=O)/C(Cc2cc(=O)oc3cc(O)ccc23)=N\NC(=O)C[N+](C)(C)C)cc1C` stands greater than 100 µM.
On to `CC1OC(c2ccc3c(c2O)C(=O)C2=C(C3=O)C3(O)C(=O)CC(C)(O)CC3(O)C=C2)CC(O)C1O` (centres undefined), for which the TGI is 31.4 µM.
The same measure, in the same setting: under `CCN(CC)CCO/N=C1\CC[C@H]2[C@@H]3CCc4cc(OC)ccc4[C@H]3CC[C@]12C` stands 11.6 µM.

The test system of a further assay is HOP-62 NSCLC. Nature of the assay: NCI tumour cell line growth inhibition, 48 h.
`CC(=O)n1nc(-c2ccccc2)n(/N=C/c2ccc([N+](=O)[O-])o2)c1=O` had a TGI of 19.6 µM.
Same read-out and setting: the result for `Cc1ccc(NC(=O)/C(Cc2cc(=O)oc3cc(O)ccc23)=N\NC(=O)C[N+](C)(C)C)cc1C` reads greater than 100 µM; that for `CC1OC(c2ccc3c(c2O)C(=O)C2=C(C3=O)C3(O)C(=O)CC(C)(O)CC3(O)C=C2)CC(O)C1O` (centres undefined), 60.7 µM; that for `CCN(CC)CCO/N=C1\CC[C@H]2[C@@H]3CCc4cc(OC)ccc4[C@H]3CC[C@]12C`, 3.73 µM.

The next assay relates to SF-295 CNS. Nature of the assay: NCI tumour cell line growth inhibition, 48 h.
`CC(=O)n1nc(-c2ccccc2)n(/N=C/c2ccc([N+](=O)[O-])o2)c1=O` gave a TGI of 47.9 µM.
Compound `Cc1ccc(NC(=O)/C(Cc2cc(=O)oc3cc(O)ccc23)=N\NC(=O)C[N+](C)(C)C)cc1C` came in with a TGI greater than 100 µM.
`CC1OC(c2ccc3c(c2O)C(=O)C2=C(C3=O)C3(O)C(=O)CC(C)(O)CC3(O)C=C2)CC(O)C1O` (centres undefined) registered a TGI of 34.2 µM.
In turn, `CCN(CC)CCO/N=C1\CC[C@H]2[C@@H]3CCc4cc(OC)ccc4[C@H]3CC[C@]12C` registered a TGI of 3.78 µM.

The next assay relates to OVCAR-4 ovarian. Description: NCI tumour cell line growth inhibition, 48 h.
In the case of `CC(=O)n1nc(-c2ccccc2)n(/N=C/c2ccc([N+](=O)[O-])o2)c1=O`, the TGI came out at 35.6 µM.
The same measure, in the same setting: under `Cc1ccc(NC(=O)/C(Cc2cc(=O)oc3cc(O)ccc23)=N\NC(=O)C[N+](C)(C)C)cc1C` stands greater than 100 µM; under `CC1OC(c2ccc3c(c2O)C(=O)C2=C(C3=O)C3(O)C(=O)CC(C)(O)CC3(O)C=C2)CC(O)C1O` (centres undefined), 27.2 µM; under `CCN(CC)CCO/N=C1\CC[C@H]2[C@@H]3CCc4cc(OC)ccc4[C@H]3CC[C@]12C`, 22.4 µM.

Another assay has as its system SK-MEL-5 melanoma. Description: NCI tumour cell line growth inhibition, 48 h.
Regarding `CC(=O)n1nc(-c2ccccc2)n(/N=C/c2ccc([N+](=O)[O-])o2)c1=O`, the TGI was determined as 14.8 µM.
`Cc1ccc(NC(=O)/C(Cc2cc(=O)oc3cc(O)ccc23)=N\NC(=O)C[N+](C)(C)C)cc1C` displayed a TGI greater than 100 µM.
The same measure, in the same setting: under `CC1OC(c2ccc3c(c2O)C(=O)C2=C(C3=O)C3(O)C(=O)CC(C)(O)CC3(O)C=C2)CC(O)C1O` (centres undefined) stands 22.9 µM; under `CCN(CC)CCO/N=C1\CC[C@H]2[C@@H]3CCc4cc(OC)ccc4[C@H]3CC[C@]12C`, 3.21 µM.

The next assay concerns NCI-H460 lung. Nature of the assay: NCI tumour cell line growth inhibition, 48 h.
Consider `CC(=O)n1nc(-c2ccccc2)n(/N=C/c2ccc([N+](=O)[O-])o2)c1=O`, for which the TGI was 15.9 µM.
Still for that read-out and setting: the result for `Cc1ccc(NC(=O)/C(Cc2cc(=O)oc3cc(O)ccc23)=N\NC(=O)C[N+](C)(C)C)cc1C` reads greater than 100 µM.
Still for that read-out and setting: under `CC1OC(c2ccc3c(c2O)C(=O)C2=C(C3=O)C3(O)C(=O)CC(C)(O)CC3(O)C=C2)CC(O)C1O` (centres undefined) stands greater than 64.9 µM; under `CCN(CC)CCO/N=C1\CC[C@H]2[C@@H]3CCc4cc(OC)ccc4[C@H]3CC[C@]12C`, 2.15 µM.

Another assay deals with OVCAR-3 ovarian. Description: NCI tumour cell line growth inhibition, 48 h.
`CC(=O)n1nc(-c2ccccc2)n(/N=C/c2ccc([N+](=O)[O-])o2)c1=O` registered a TGI of 17 µM.
The same measure, in the same setting: under `Cc1ccc(NC(=O)/C(Cc2cc(=O)oc3cc(O)ccc23)=N\NC(=O)C[N+](C)(C)C)cc1C` stands greater than 100 µM; under `CC1OC(c2ccc3c(c2O)C(=O)C2=C(C3=O)C3(O)C(=O)CC(C)(O)CC3(O)C=C2)CC(O)C1O` (centres undefined), 15.8 µM; under `CCN(CC)CCO/N=C1\CC[C@H]2[C@@H]3CCc4cc(OC)ccc4[C@H]3CC[C@]12C`, 15.5 µM.

Another assay deals with OVCAR-8 ovarian. Nature of the assay: NCI tumour cell line growth inhibition, 48 h.
In turn, `CC(=O)n1nc(-c2ccccc2)n(/N=C/c2ccc([N+](=O)[O-])o2)c1=O` registered a TGI of 33.3 µM.
Turning to `Cc1ccc(NC(=O)/C(Cc2cc(=O)oc3cc(O)ccc23)=N\NC(=O)C[N+](C)(C)C)cc1C`, the TGI was greater than 100 µM.
Same read-out and setting: under `CC1OC(c2ccc3c(c2O)C(=O)C2=C(C3=O)C3(O)C(=O)CC(C)(O)CC3(O)C=C2)CC(O)C1O` (centres undefined) stands 51.5 µM; under `CCN(CC)CCO/N=C1\CC[C@H]2[C@@H]3CCc4cc(OC)ccc4[C@H]3CC[C@]12C`, 7.95 µM.

For a further assay, the system named is SN12C renal. Description: NCI tumour cell line growth inhibition, 48 h.
The compound `CC(=O)n1nc(-c2ccccc2)n(/N=C/c2ccc([N+](=O)[O-])o2)c1=O` had a TGI of 7.39 µM.
Same read-out and setting: under `Cc1ccc(NC(=O)/C(Cc2cc(=O)oc3cc(O)ccc23)=N\NC(=O)C[N+](C)(C)C)cc1C` stands greater than 100 µM.
In turn, `CC1OC(c2ccc3c(c2O)C(=O)C2=C(C3=O)C3(O)C(=O)CC(C)(O)CC3(O)C=C2)CC(O)C1O` (centres undefined) returned a TGI of 28.2 µM.
Still for that read-out and setting: under `CCN(CC)CCO/N=C1\CC[C@H]2[C@@H]3CCc4cc(OC)ccc4[C@H]3CC[C@]12C` stands 8.12 µM.
